Experimental data taken from patent US6753425B2, “Photographic processing composition containing bistriazinyl arylenediamine derivative” (Fuji Photo Film Co., Ltd., priority 2000, dated 2004).
Read-outs that look alike come from different tables or passages of the source.

Legend:
[1] = Solubility at the preparation of the additive composition for a fixing solution; assay type: physicochemical; details: Example 5 additive composition, dissolution aid none
[2] = Stability against deposition of precipitates (visual judgement of the stored processing composition); assay type: physicochemical; set-up: key: the level of conspicuous precipitation was xx; the level of apparent precipitation was x; the level of slight precipitation was Δ; the level of no precipitation but clouding was ◯; the level of complete transparency with neither clouding nor precipitation was ◯◯
[3] = Example 1 concentrated color developing composition, 15 mmol added, glass bottle, 4 weeks at room temperature
[4] = Example 1 concentrated color developing composition, 15 mmol added, glass bottle, 4 weeks at −5° C.
[5] = Example 2 color developing composition with increased developing agent, 25 mmol added, 4 weeks at room temperature
[6] = Example 2 color developing composition with increased developing agent, 25 mmol added, 4 weeks at −5° C.
[7] = Example 3 fixing composition, 5 mmol added, 4 weeks at room temperature
[8] = Example 3 fixing composition, 5 mmol added, 4 weeks at −5° C.
[9] = Example 4 color developing composition for color negative film, 15 mmol added, 4 weeks at room temperature
[10] = Example 4 color developing composition for color negative film, 15 mmol added, 4 weeks at −5° C.
[11] = Example 5 additive composition, compound 70 mmol, dissolution aid none, −5° C.

| Solubility at the Preparation of Solution ([1]; compound 70 mmol) | Evaluation of Deposition (room temperature) [2, 3] | Evaluation of Deposition (−5° C.) [2, 4] | Evaluation of Deposition (room temperature) [2, 5] | Evaluation of Deposition (−5° C.) [2, 6] | Evaluation of Deposition (room temperature) [2, 7] | Evaluation of Deposition (−5° C.) [2, 8] | Evaluation of Deposition (room temperature) [2, 9] | Evaluation of Deposition (−5° C.) [2, 10] | Evaluation of Deposition (−5° C.) [2, 11] | Solubility at the Preparation of Solution ([1]; compound 140 mmol) | Evaluation of Deposition (−5° C.) ([2]; Example 5 additive composition, compound 140 mmol, dissolution aid none, −5° C.) | SMILES | Evaluation of Deposition (room temperature) [2] | Evaluation of Deposition (−5° C.) [2] |
| --- | --- | --- | --- | --- | --- | --- | --- | --- | --- | --- | --- | --- | --- | --- |
| Completely | ◯◯ | ◯◯ | ◯◯ | ◯◯ | ◯◯ | ◯◯ | ◯◯ | ◯◯ | ◯◯ |  |  | O=S(=O)([O-])CCNc1nc(NCC(O)CO)nc(Nc2ccc(Nc3nc(NCCS(=O)(=O)[O-])nc(NCC(O)CO)n3)cc2)n1.[Na+].[Na+] (centres unmarked) [Compound A-2] |  |  |
| Completely | ◯◯ | ◯◯ | ◯◯ | ◯◯ | ◯◯ | ◯◯ | ◯◯ | ◯◯ | ◯◯ | Completely | ◯◯ | O=S(=O)([O-])CCNc1nc(NCC(O)CO)nc(Nc2cccc(Nc3nc(NCCS(=O)(=O)[O-])nc(NCC(O)CO)n3)c2)n1.[Na+].[Na+] (centres unmarked) [Compound A-3] |  |  |
|  |  |  |  |  |  |  |  |  |  |  |  | COc1cc(Nc2nc(NCCS(=O)(=O)[O-])nc(NCC(O)CO)n2)c(OC)cc1Nc1nc(NCCS(=O)(=O)[O-])nc(NCC(O)CO)n1.[Na+].[Na+] (centres unmarked) [Compound A-7] | ◯◯ | ◯ |
|  |  |  |  |  |  |  |  |  |  |  |  | CC(CO)Nc1nc(NCC(O)CO)nc(Nc2cc(Nc3nc(NCC(O)CO)nc(NC(C)CO)n3)cc(S(=O)(=O)[O-])c2)n1.[Na+] (centres unmarked) [Compound A-23] | ◯◯ | ◯◯ and ◯ |
